Here are results for eight compounds from PMC8284440, “Toward New Transmission-Blocking Combination Therapies: Pharmacokinetics of 10-Amino-Artemisinins and 11-Aza-Artemisinin and Comparison with Dihydroartemisinin and Artemether” (Antimicrobial Agents and Chemotherapy, 2021).

A short description of series [1]: Pharmacokinetics in mice, intravenous administration. The series is classed as in vivo, male C57/BL6 mice. As to conditions: for AUC: 0 h to last, parent; for V: volume of distribution during elimination phase; for half-life / CLint scaled / clearance: male; for half-life: C57/BL6, iv, mouse plasma; for CLint scaled / clearance: C57/BL6, mouse, plasma, iv; for clearance: read-out: CLtot; for DHA detected as a metabolite: mouse PK studies, i.v. and p.o., LC-MS/MS. On the procedure: (§1) (i) Animals. Healthy male C57/BL6 mice each weighing approximately 25 g were used. The mice maintained at the University of Cape Town animal facility were housed in 27 by 21 by 18 cm cages, under controlled environmental conditions at 22 ± 2°C and a 12-h light/dark cycle. Humidity was monitored and ranged between 55 and 70%. Food and water were available ad libitum. Mice were acclimatized to their environment for 7 days before experiments were initiated.
(iii) Intravenous drug administration. For the intravenous formulations, each of artemether, the amino-artemisinins 5 to 10, and 11-aza-artemisinin 11 (2.5 mg) was dissolved in 1 ml DMSO/PEG/PPG (1:3:6, vol/vol). DMSO was added first, followed by PEG and then PPG. The resulting solutions in the mixture of DMSO, PEG, and PPG (1:3:6, vol/vol) were administered intravenously at a dose of 10 mg/kg (n = 3) via injection into the dorsal penile vein. Mice were anesthetized with an intraperitoneal injection of a saline ketamine/xylazine solution. This consisted of 1 ml ketamine (100 mg/ml), 0.5 ml xylazine (20 mg/ml), and 8.5 ml PBS solution to make a total volume of 10 ml. Dosage of anesthetic preparation for mice was […]; this amounts to a dose of 80 mg/kg ketamine and 10 mg/kg xylazine. The total volume of administration was dose adjusted to 10 mg/kg with an approximate volume of 80 μl, according to the weight of each animal on the morning of dosing. Blood samples for the amino-artemisinins 5 to 8 and 10 were collected via tail-bleeding predose and at 0.08, 0.25, 0.5, 1, 2, and 4 h, and blood samples for the phenylurea 9 and 11-aza-artemisinin 11 were collected at 0.08, 0.5, 1, 2, 4, 8, and 24 h postdose. Samples were all placed in 0.5 ml lithium heparin microvials to prevent blood coagulation. The samples were immediately centrifuged at 5,590 × g for 5 min and the plasma was transferred to new microvials. The plasma samples were stored at −80°C.
(§2) Sample extraction. […] The organic layer was then transferred and evaporated under a gentle stream of nitrogen at room temperature for 30 min. The dried samples were reconstituted in mobile phase, and a 5 μl sample was injected for LC-MS/MS analysis. The only exception was the arylurea 10, for which no liquid-liquid extraction was conducted; instead, the 200 μl acetonitrile solution was evaporated under a gentle stream of nitrogen at room temperature. The dried sample was reconstituted in the mobile phase, and a 5 μl sample was injected for LC-MS/MS analysis. The plasma samples for each compound from the in vivo studies were extracted by mixing 350 μl ethyl acetate with 15 μl of plasma sample and 35 μl of universal buffer containing internal standard at pH 8. The samples were vortexed for 1 min and centrifuged for 5 min, and the organic layer was then transferred and evaporated under a gentle stream of nitrogen at room temperature for 30 min. The dried samples were each reconstituted in the mobile phase, and a 5 μl sample was injected for LC-MS/MS analysis.
(§3) LC-MS/MS analysis. For all the artemisinins except the arylurea 10, gradient chromatography was performed on a Phenomenex (Torrance, CA, USA) Luna PFP(2) analytical column (100 Å, 5 μm, 2 by 50 mm) and an AB Sciex API 5500 mass spectrometer which was operated at unit resolution in the multiple reaction monitoring (MRM) mode. The HPLC method used was a gradient method with 5 mM ammonium acetate and 0.1% acetic acid in water as the aqueous phase and a mixture of acetonitrile and methanol (1:1 vol/vol) containing 5% of the aqueous phase as the organic phase ([89]). The arylurea 10 was analyzed using a Phenomenex Gemini NX-C18 (5 μm, 2.1 mm by 50 mm) column with an AB Sciex 3200 QTRAP mass spectrometer operated at unit resolution in the MRM mode. The HPLC method used was a gradient method with 5 mM ammonium acetate and 0.1% acetic acid in water as the aqueous phase and a mixture of acetonitrile and methanol (1:1 vol/vol).

The nature of series [2]: Pharmacokinetics in mice, oral administration. The series is classed as in vivo, male C57/BL6 mice. Particulars: for bioavailability / Cmax / Tmax: male, C57/BL6, mouse, plasma; for bioavailability: 50 mg/kg; for bioavailability / F: oral bioavailability, p.o. 50 mg/kg vs i.v. 10 mg/kg; for Cmax / Tmax / AUC: p.o. 50 mg/kg, parent; for AUC: 0 h to last. On the procedure: as §1
(ii) Oral drug administration. Each of artemether, the amino-artemisinins 5 to 10, and 11-aza-artemisinin 11 (12.5 mg) was dissolved in 0.2 ml DMSO, to which 1.8 ml 0.5% (wt/vol) HPMC in water was then added. Compounds were administered orally via gavage at a dose of 50 mg/kg (n = 3). Dosing volumes were calculated based on the weight of each mouse in the respective group. The dosing volumes ranged between 160 μl and 200 μl, ensuring that the dose remained at 50 mg/kg. Blood samples for amino-artemisinins 5 to 8 and 10 were collected via tail-bleeding predose and at 0.08, 0.25, 0.5, 1, 2, and 4 h. Blood samples for the phenylurea 9 and 11-aza-artemisinin 11 were collected at 0.08, 0.5, 1, 2, 4, 8, and 24 h postdose. Samples were placed in 0.5 ml lithium heparin micro vials to prevent blood coagulation. […] The samples were immediately centrifuged at 5,590 × g for 5 min and the plasma was transferred to new microvials. The plasma samples were stored at −80°C.
as §2
as §3, with “vol/vol). The transitions of the molecular ions were monitored, as listed in Table S8 in the supporting information. The calibration range was between 0.002 μg/ml and 6.250 μg/ml.” for “vol/vol).”

The mark [3] stands for this setting: 10 mg/kg, i.v. 10 mg/kg, total plasma clearance.
Setting [4] is: metabolite formed from i.v. artemiside 5, 10 mg/kg.
Setting [5] is: metabolite formed from p.o. artemiside 5, 50 mg/kg.

Usually half-life stands for the time in which the quantity being followed falls by half. As usually defined, the CLint scaled is a measure of how fast metabolising enzymes remove a compound, apart from limits set by blood flow. Broadly, the bioavailability is the share of a dose that reaches the circulation, judged against a reference dose that is usually intravenous. A low value points to poor availability. A word on the Cmax: it is the maximum level reached in the sampled fluid or tissue. One may read the Tmax as the time from dosing to the highest level. Regarding `C[C@@H]1CC[C@H]2[C@@H](C)C(=O)N[C@@H]3O[C@@]4(C)CC[C@@H]1[C@]32OO4` [11-Aza-artemisinin 11, 11-aza-artemisinin], in series [1] (i.v. 10 mg/kg), the AUC came out at 462.7 ± 117 min/µmol/L, the V was found to be 19.4 ± 7.5 L/kg and the half-life was 186 ± 48 min. For the same compound, in series [1] (10 mg/kg), the intrinsic clearance (CLint scaled) came out at 577 mL/min/kg. In addition, the clearance in series [1] (setting [3]) stood at 75 ± 8.9 mL/min/kg. Further, the “DHA detected as a metabolite” value in series [1] (listed as 11-Aza-artemisinin) is recorded as “could not be detected”. For the same compound, in series [1] (listed as 11-aza-artemisinin), the “DHA detected as a metabolite” value is listed as “not detected”. This compound had a bioavailability in series [2] (oral) of 7%. In addition, in series [2] (po), the bioavailability was found to be 14%, the Cmax was 2600 ± 10 nM and the Tmax came out at 30 min. Further, in series [2], the F came out at 7.15 ± 0.3% and the AUC came to 154.9 ± 10 min/µmol/L.
Consider `CO[C@H]1O[C@@H]2O[C@@]3(C)CC[C@H]4[C@H](C)CC[C@@H]([C@H]1C)[C@@]24OO3` [Artemether 3, artemether], for which, in series [1] (i.v. 10 mg/kg), the AUC was found to be 304.4 ± 80 min/µmol/L, the V came to 14.1 ± 1.3 L/kg and the half-life was 84 ± 12 min. The compound also came in with a CLint scaled in series [1] (10 mg/kg) of 855 mL/min/kg. Besides, in series [1] (setting [3]), the clearance amounted to 120 ± 39 mL/min/kg. For the same compound, in series [2] (po), the bioavailability amounted to 2 ± 0.6%, the Cmax stood at 600 ± 200 nM and the Tmax was 6 min. For the same compound, the AUC in series [2] is 32.3 ± 20 min/µmol/L.
On to `C[C@H]1[C@H](N2CCSCC2)O[C@@H]2O[C@@]3(C)CC[C@H]4[C@H](C)CC[C@@H]1[C@@]24OO3` [Artemiside 5, artemiside], for which, in series [1] (i.v. 10 mg/kg), the AUC was found to be 184.9 ± 43 min/µmol/L, the V was 24.3 ± 9.3 L/kg and the half-life was 108 ± 30 min. The compound also came in with a CLtot in series [1] (i.v. 10 mg/kg, total plasma clearance, 10 mg/kg) of 155.0 ± 46.4 mL/min/kg. This compound also returned a CLint scaled in series [1] (10 mg/kg) of 674 mL/min/kg. Besides, the clearance in series [1] (setting [3]) is 130 mL/min/kg. Besides, the “DHA detected as a metabolite” value in series [1] is reported as “not detected”. In addition, in series [2] (po), the bioavailability came to 1 ± 0.2%, the Cmax was determined as 100 ± 10 nM and the time to peak (Tmax) stood at 60 ± 54 min. Also, in series [2], the AUC came out at 9.5 ± 2.5 min/µmol/L.
For the compound `C[C@H]1[C@H](N2CCS(=O)(=O)CC2)O[C@@H]2O[C@@]3(C)CC[C@H]4[C@H](C)CC[C@@H]1[C@@]24OO3` [Artemisone 6, artemisone], in series [1] (i.v. 10 mg/kg), the AUC worked out at 577.5 ± 30 min/µmol/L, the V worked out at 1.9 ± 0.1 L/kg and the half-life is 30 ± 1.8 min. The CLint scaled in series [1] (10 mg/kg) is 302 mL/min/kg. Moreover, in series [1] (setting [3]), the clearance was 42.3 ± 2.1 mL/min/kg. For the same compound, the AUC of metabolite in series [1] (setting [4]) was found to be 28.9 ± 1 min/µmol/L. The “DHA detected as a metabolite” value in series [1] is on record as “not detected”. Besides, in series [2] (po), the bioavailability was determined as 32%, the peak concentration (Cmax) is 8000 ± 800 nM and the time to peak (Tmax) came to 18 ± 6 min. Further, the AUC of metabolite in series [2] (setting [5]) turned out to be 101.5 ± 49 min/µmol/L. Further, in series [2], the F was found to be 34 ± 7.5% and the AUC amounted to 922.7 ± 348 min/µmol/L.
With `C[C@H]1[C@H](N2CCN(C(=O)Nc3ccc(F)cc3)CC2)O[C@@H]2O[C@@]3(C)CC[C@H]4[C@H](C)CC[C@@H]1[C@@]24OO3` [Arylurea 10], in series [1] (i.v. 10 mg/kg), the AUC was found to be 315.9 ± 33 min/µmol/L, the V is 6.92 ± 2.9 L/kg and the half-life is 78 ± 18 min. For the same compound, the intrinsic clearance (CLint scaled) in series [1] (10 mg/kg) turned out to be 2940 mL/min/kg. The clearance in series [1] (setting [3]) came to 58.9 ± 3.5 mL/min/kg. Moreover, in series [2] (po), the bioavailability was 17.5 ± 3.1%, the peak concentration (Cmax) was determined as 2300 ± 300 nM and the Tmax is 30 min. Besides, the AUC in series [2] was 276.5 ± 48.4 min/µmol/L.
With `C[C@H]1[C@@H](O)O[C@@H]2O[C@@]3(C)CC[C@H]4[C@H](C)CC[C@@H]1[C@@]24OO3` [DHA 2, dihydroartemisinin], the AUC of metabolite in series [1] (metabolite formed from i.v. artemether 3, 10 mg/kg) is 155 ± 17 min/µmol/L; in series [2] (metabolite formed from p.o. artemether 3, 50 mg/kg), 77 ± 12 min/µmol/L.
In the case of `C[C@H]1[C@H](N2C=CS(=O)(=O)CC2)O[C@@H]2O[C@@]3(C)CC[C@H]4[C@H](C)CC[C@@H]1[C@@]24OO3` [M1 12], the AUC of metabolite in series [1] (setting [4]) is 13.8 ± 9 min/µmol/L; in series [1] (metabolite formed from i.v. artemisone, 10 mg/kg), 60.6 ± 36 min/µmol/L; in series [2] (setting [5]), 20.8 ± 8 min/µmol/L; in series [2] (metabolite formed from p.o. artemisone 6, 50 mg/kg), 173.3 ± 51.7 min/µmol/L.
On to `C[C@H]1[C@H](NS(N)(=O)=O)O[C@@H]2O[C@@]3(C)CC[C@H]4[C@H](C)CC[C@@H]1[C@@]24OO3` [Sulfamide 7], for which, in series [1] (i.v. 10 mg/kg), the AUC is 864.1 ± 213 min/µmol/L, the V came to 1.63 ± 0.4 L/kg and the half-life was 36 ± 6 min. Further, the CLint scaled in series [1] (10 mg/kg) was 189 mL/min/kg. Moreover, the clearance in series [1] (setting [3]) amounted to 32.2 ± 6.2 mL/min/kg. Moreover, the “DHA detected as a metabolite” value in series [1] is “not detected”. Also, in series [2] (po), the bioavailability came out at 59%, the Cmax stood at 21700 ± 1200 nM and the Tmax stood at 36 ± 12 min. In series [2], the F was determined as 59.3 ± 11.6% and the AUC is reported as 2,562.3 ± 499 min/μmol/liter.
